Patent publication US3954767A, “Piperazine salts of 2,5-dihydroxy benzene sulfonic acid mono- and diesters” (priority 1972, dated 1976)
Where a name gives a salt, the structure may show the parent alone.

Key:
mouse = experiment: Acute toxicity (LD50), mouse, oral, method of Reed and Muench; format: in vivo, mouse (albino); settings: Table VI; species and route not printed in table (mouse per b12)
Protocol: (§1) The acute toxicities for the mouse are also very low. The medium lethal dose (LD50) for the mouse was determined according to the modified method of Reed and Muench (Reed L. J. & Muench H., Am. J. Hyg., 27, 493, 1938).
(§2) 1. ACUTE TOXICITY IN THE MOUSE AND RAT
(§3) 18 to 25 gr albino mouse.
(§4) The LD50 was determined according to the method of Reed and Muench. […]

[1] = system: rats treated with Triton WR-1339; experiment: Hypolipemic action on the rat, Triton WR-1339 method; format: in vivo; settings: for Percentage reduction of lipids: Cholesterol / Percentage reduction of lipids: Total Lipids / Percentage reduction of lipids: Triglycerides: Table VI, with respect to Triton WR-1339
Protocol: The above-mentioned Triton WR-1339 method was selected. The total cholesterol, triglycerides and total lipids were determined in the serum. The amount of Triton WR-1339 administered to the animals was 300 mg/kg. The amount of piperazine 2,5-dihydroxy benzene sulfonate mono-tosylate administered was 2 mMoles/Kg orally. The letter P signifies probability.
The above-mentioned Triton WR-1339 method was selected. The total cholesterol, triglycerides and total lipids were determined in the serum. The results obtained are given in Table V. The amount of Triton WR-1339 administered to the animals was 300 mg/Kg. The amount of the piperazine salt with one mole of the di-0-(p-chloro phenoxy isobutyrate) of 2,5-dihydroxy benzene sulfonic acid administered was 1 mMol/Kg orally. The letter P signifies probability.
In this Triton WR-1339 method, all the compounds are administered at a dose of 2 mMoles/Kg orally excepted those compounds in which is the residue of p-chlorophenoxy isobutyric acid, which are administered orally at a dose corresponding to 2 mMoles of R per Kg, i.e. the amount used is calculated on the basis of the residue R only.

[2] = Acute toxicity (LD50), mouse, oral, method of Reed and Muench; format: in vivo, mouse (albino); settings: mouse, in vivo, po
Protocol: as §1, §2, §3, §4

[3] = Acute toxicity (LD50), rat, oral, method of Reed and Muench; design: species or system rat (Sprague-Dawley); settings: in vivo
Protocol: as §2
100 to 150 gr. Sprague-Dawley rats.
The LD50 was determined according to the method of Reed and Muench.

white Leghorn chickens = experiment: Hypolipemic action on the chicken; format: in vivo, chicken (white Leghorn)
Protocol: as §1
This study was performed with white Leghorn chickens, according to the above-mentioned method. The total cholesterol and the total lipids are determined in the plasma.

[4] = orally, 2 mMoles of R (p-chlorophenoxy isobutyric acid residue) per Kg
[5] = Table VI, species and route not printed in table (mouse per b12), read-out: LD50 (medium lethal dose)
[6] = Triton 300 mg/kg + compound 2 mMoles/Kg orally, P<0,0005

CC(C)(Oc1ccc(Cl)cc1)C(=O)Oc1ccc(OC(=O)C(C)(C)Oc2ccc(Cl)cc2)c(S(=O)(=O)O)c1 [magnesium salt of di-O-(p-chloro phenoxy isobutyrate) of 2,5] [magnesium salt of di-O-(p-chlorophenoxy isobutyrate) of 2,5-dihydroxy benzene sulfonic acid]
LD50 (medium lethal dose) (mouse): 4.780 mg/kg | Percentage reduction of lipids: Cholesterol [1, 4]: 5% | Percentage reduction of lipids: Total Lipids [1, 4]: 25% | Percentage reduction of lipids: Triglycerides [1, 4]: 51%

O=C(Oc1ccc(OC(=O)c2ccccc2)c(S(=O)(=O)O)c1)c1ccccc1 [morpholine 2.5-dihydroxybenzenesulphonate dibenzoate]
LD50 [2, 5]: 4000 mg/kg

CC(C)(Oc1ccc(Cl)cc1)C(=O)Oc1ccc(OC(=O)C(C)(C)Oc2ccc(Cl)cc2)c(S(=O)(=O)O)c1 [piperazine mono-salt of di-O-(p-chlorophenoxy isobutyrate) of 2,5-dihydroxy benzene sulfonic acid]
LD50 [2, 5]: 11000 mg/kg | LD50 ([2]; mouse female, read-out: LD50): 8700 mg/kg | LD50 ([2]; mouse male, read-out: LD50): 11000 mg/kg | LD50 ([3]; rat female): 11700 mg/kg | LD50 ([3]; rat male): 11000 mg/kg

Cc1ccc(S(=O)(=O)Oc2ccc(OS(=O)(=O)c3ccc(C)cc3)c(S(=O)(=O)O)c2)cc1 [pyridine 2,5-dihydroxy benzene sulfonate ditosylate]
LD50 [2, 5]: 700 mg/kg | Percentage reduction of lipids: Cholesterol ([1]; 2 mMoles/Kg orally): 17% | Percentage reduction of lipids: Total Lipids ([1]; 2 mMoles/Kg orally): 31% | Percentage reduction of lipids: Triglycerides ([1]; 2 mMoles/Kg orally): 44%

Cc1ccc(S(=O)(=O)Oc2ccc(O)c(S(=O)(=O)O)c2)cc1 [piperidine 2.5-dihydroxybenzenesulphonate monotosylate]
LD50 [2, 5]: 5000 mg/kg

Cc1ccc(S(=O)(=O)Oc2ccc(O)c(S(=O)(=O)O)c2)cc1 [piperazine 2,5-dihydroxybenzenesulfonate monotosylate] [piperazine 2.5-dihydroxybenzenesulphonate monotosylate]
Percentage reduction of lipids: Cholesterol ([1]; 2 mMoles/Kg orally): 18% | Percentage reduction of lipids: Total Lipids ([1]; 2 mMoles/Kg orally): 42% | Percentage reduction of lipids: Triglycerides ([1]; 2 mMoles/Kg orally): 43% | total cholesterol ([1]; Triton 300 mg/kg + compound 2 mMoles/Kg orally, 0,0005<P<0,0025): 232,3 mg % ml of plasma | total lipids [1, 6]: 1211,4 mg % ml of plasma | triglycerides [1, 6]: 639,8 mg % ml of plasma | total lipids, b/a . 100 (Y) (white Leghorn chickens; final relative to initial value, check sample X = 1075): 726 | total cholesterol, b/a . 100 (Y) (white Leghorn chickens; final relative to initial value, check sample X = 1514): 1017 | total cholesterol, final value (b) (white Leghorn chickens; final value): 947,2 mg % ml of plasma | total lipids, final value (b) (white Leghorn chickens; final value): 2360,8 mg % ml of plasma | total cholesterol, initial value (a) (white Leghorn chickens; initial value): 93,1 mg % ml of plasma | total lipids, initial value (a) (white Leghorn chickens; initial value): 325,2 mg % ml of plasma

Cc1ccc(S(=O)(=O)Oc2ccc(O)c(S(=O)(=O)O)c2)cc1 [pyridine 2,5-dihydroxybenzenesulfonate monotosylate] [pyridine 2,5-dihydroxy benzene sulfonate mono-tosy-late]
LD50 (medium lethal dose) (mouse): 680 mg/kg | Percentage reduction of lipids: Cholesterol ([1]; 2 mMoles/Kg orally): 18% | Percentage reduction of lipids: Total Lipids ([1]; 2 mMoles/Kg orally): 27% | Percentage reduction of lipids: Triglycerides ([1]; 2 mMoles/Kg orally): 36%

Cc1ccc(S(=O)(=O)Oc2ccc(O)c(S(=O)(=O)O)c2)cc1 [diethylamine-2,5-dihydroxybenzenesulfonate monotosylate] [diethylamine 2,5-dihydroxy benzene sulfonate mono-tosylate]
LD50 (medium lethal dose) (mouse): 6.588 mg/kg | Percentage reduction of lipids: Cholesterol ([1]; 2 mMoles/Kg orally): 23% | Percentage reduction of lipids: Total Lipids ([1]; 2 mMoles/Kg orally): 31% | Percentage reduction of lipids: Triglycerides ([1]; 2 mMoles/Kg orally): 32%

Cc1ccc(S(=O)(=O)Oc2ccc(O)c(S(=O)(=O)O)c2)cc1 [piperazine 2.5-dihydroxybenzenesulphonate monotosylate]
LD50 ([2]; mouse female, read-out: LD50): > 10800 mg/kg | LD50 ([2]; mouse male, read-out: LD50): > 10800 mg/kg | LD50 ([3]; rat female): 11900 mg/kg | LD50 ([3]; rat male): > 11900 mg/kg

CC(C)(Oc1ccc(Cl)cc1)C(=O)Oc1ccc(O)cc1S(=O)(=O)O [calcium 2-O-(p-chlorophenoxyisobutyryl) 2,5-dihydroxy benzene sulfonate]
LD50 [2, 5]: 3.35 mg/kg | Percentage reduction of lipids: Cholesterol [1, 4]: 30% | Percentage reduction of lipids: Total Lipids [1, 4]: 26% | Percentage reduction of lipids: Triglycerides [1, 4]: 32%

CC(C)(Oc1ccc(Cl)cc1)C(=O)Oc1ccc(O)c(S(=O)(=O)O)c1 [calcium salt of mono-O-(p-chloro phenoxy isobutyrate) of 2,5] [calcium salt of mono-O-(p-chlorophenoxy isobutyrate) of 2,5-dihydroxybenzene sulfonic acid]
Percentage reduction of lipids: Cholesterol [1, 4]: 27% | Percentage reduction of lipids: Total Lipids [1, 4]: 26% | Percentage reduction of lipids: Triglycerides [1, 4]: 40%

Cc1ccc(S(=O)(=O)Oc2ccc(O)c(S(=O)(=O)O)c2)cc1 [morpholine 2,5-dihydroxybenzenesulfonate monotosylate] [morpholine 2.5-dihydroxybenzenesulphonate monotosylate]
LD50 (medium lethal dose) (mouse): 5.301 mg/kg | Percentage reduction of lipids: Cholesterol ([1]; 2 mMoles/Kg orally): 12% | Percentage reduction of lipids: Total Lipids ([1]; 2 mMoles/Kg orally): 31% | Percentage reduction of lipids: Triglycerides ([1]; 2 mMoles/Kg orally): 23%

CC(C)(Oc1ccc(Cl)cc1)C(=O)Oc1ccc(O)c(S(=O)(=O)O)c1 [mono-p-chloro phenoxy isobutyrate of pyridine 2,5-dihydroxy benzene sulfonate]
LD50 [2, 5]: 900 mg/kg

CC(C)(Oc1ccc(Cl)cc1)C(=O)Oc1ccc(O)c(S(=O)(=O)O)c1 [pyridine 2,5-dihydroxybenzenesulfonate mono-p-chloro phenoxy] [mono-p-chloro phenoxy isobutyrate of pyridine 2,5-dihydroxy benzene sulfonate]
Percentage reduction of lipids: Cholesterol [1, 4]: 16% | Percentage reduction of lipids: Total Lipids [1, 4]: 23% | Percentage reduction of lipids: Triglycerides [1, 4]: 27%
